The structures appear in SMILES notation.

In the first test the target is T1, human μ opiate receptor (Homo sapiens, UniProt P35372).
T1 construct: purchased PerkinElmer Life Sciences, Zaventem, Belgium RB-HOM; host or cells: CHO-K1 cells (membrane preparation)
T1 sequence (P35372 whole entry): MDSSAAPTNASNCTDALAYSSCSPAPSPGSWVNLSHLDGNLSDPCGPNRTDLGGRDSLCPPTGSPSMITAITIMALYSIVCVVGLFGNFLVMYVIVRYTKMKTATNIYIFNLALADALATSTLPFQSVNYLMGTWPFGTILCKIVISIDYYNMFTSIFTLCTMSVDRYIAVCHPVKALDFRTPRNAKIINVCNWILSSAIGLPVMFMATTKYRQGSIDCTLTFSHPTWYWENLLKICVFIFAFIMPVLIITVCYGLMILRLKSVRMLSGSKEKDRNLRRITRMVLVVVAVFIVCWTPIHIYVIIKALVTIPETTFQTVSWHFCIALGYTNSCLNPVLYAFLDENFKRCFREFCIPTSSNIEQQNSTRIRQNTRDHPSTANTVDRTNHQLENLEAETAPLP
Briefly: Affinity for the human μ opiate receptor ([3H]-naloxone displacement, CHO-K1 receptor membrane preparation, SPA). It is filed as binding. Particulars: 1.5 h, Table 2; test concentration 1 μM; read-out: μ receptor. In a few lines:
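Displacement of 1 nmol/l [3H]-naloxone measured by SPA counting after 90 min at room temperature, using human μ receptor CHO-K1 membrane preparation in Tris-HCl buffer with 0.06% BSA. Test substances at 1 μmol/l give % inhibition; dilution series yield IC50, then Ki (Cheng-Prusoff); non-specific binding with 100 μmol/l naloxone.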
For the compound `CN(C)C(c1ccccc1)C1CCC(NC(=O)COCC2CCCN2S(=O)(=O)c2c(Cl)cc(Cl)cc2Cl)CC1` (stereo not shown) [Example 611, N-[4-(Dimethylaminophenylmethyl)-cyclohexyl]-2-[1-(2,4,6-trichlorobenzenesulfonyl)-pyrrolidin-2-ylmethoxy]-acetamide], the inhibition at 1 µM came out at 93%.

Regarding `CN(C)C(c1ccccc1)C1CCC(CNC(=O)COCCN(C)S(=O)(=O)c2c(Cl)cc(Cl)cc2Cl)CC1` (stereo not shown) [Example 614, N-[4-(dimethylaminophenylmethyl)-cyclohexylmethyl]-2-{2-[(2,4,6-trichlorobenzenesulfonyl)-methylamino]-ethoxy}-acetamide], the inhibition at 1 µM amounted to 96%.

The same test, now with this note: Table 2; test concentration 1 μM.
`CN(C)C(c1ccccc1)C1CCC(NC(=O)COCC2CCCN2S(=O)(=O)c2c(Cl)cc(Cl)cc2Cl)CC1` (stereo not shown) [Example 613, N-[4-(Dimethylaminophenylmethyl)-cyclohexyl]-2-[1-(2,4,6-trichlorobenzenesulfonyl)-pyrrolidin-2-ylmethoxy]-acetamide] gave a μ receptor of 90 % inhibition.

Staying with this test, now noted: test concentration of 1 μM.
Regarding `CN(C)C(c1ccc(Cl)cc1)C1CCC(CCNC(=O)COCCN(C)S(=O)(=O)c2c(Cl)cccc2Cl)CC1` (stereo not shown) [Example 274], the “μ (binding on the μ opioid receptor, % inhibition)” value amounted to 68%.

Consider `CN(C)C(c1ccc(Cl)cc1)C1CCC(CCNC(=O)COCCN(C)S(=O)(=O)c2ccc(F)cc2)CC1` (stereo not shown) [Example 241], for which the “μ (binding on the μ opioid receptor, % inhibition)” value was 67%.

Regarding `CN(C)C(c1cccc(F)c1)C1CCC(CCNC(=O)COCCN(C)S(=O)(=O)c2ccc(OC(F)(F)F)cc2)CC1` (stereo not shown) [Example 215], the “μ (binding on the μ opioid receptor, % inhibition)” value was 85%.

`CN(C)C(c1ccc(Cl)cc1)C1CCC(CNC(=O)COCCN(C)S(=O)(=O)c2c(Cl)cccc2Cl)CC1` (stereo not shown) [Example 207]: the “μ (binding on the μ opioid receptor, % inhibition)” value came out at 77%.

For `CN(C)C(c1cccc(F)c1)C1CCC(NC(=O)COCCN(C)S(=O)(=O)c2ccc(Cl)cc2Cl)CC1` (stereo not shown) [Example 217], the “μ (binding on the μ opioid receptor, % inhibition)” value was determined as 89%.

As to `CN(C)C(c1ccc(F)cc1)C1CCC(CCNC(=O)COC2CCCCC2N(C)S(=O)(=O)c2ccc(Cl)c(Cl)c2)CC1` (stereo not shown) [Example 244], the “μ (binding on the μ opioid receptor, % inhibition)” value was found to be 81%.

As for `CN(C)C(c1cccc(F)c1)C1CCC(CNC(=O)COC2CCN(S(=O)(=O)c3ccc(Cl)cc3Cl)C2)CC1` (stereo not shown) [Example 225], the “μ (binding on the μ opioid receptor, % inhibition)” value was determined as 83%.

In the case of `Cc1ccc(S(=O)(=O)N(C)CCOCC(=O)NC2CCC(C(c3cccs3)N(C)C)CC2)cc1` (stereo not shown) [Example 168, N-(4-((dimethylamino) (thiophen-2-yl)methyl)cyclohexyl)-2-(2-(N,4-dimethylphenylsulfamido)ethoxy)acetamide], the “μ (binding on the μ opioid receptor, % inhibition)” value is 83%.

In the case of `CN(C)C(c1ccc(Cl)cc1)C1CCC(CNC(=O)COCCN(C)S(=O)(=O)c2ccc(F)cc2)CC1` (stereo not shown) [Example 263], the “μ (binding on the μ opioid receptor, % inhibition)” value is listed as 72%.

For `COc1ccc(S(=O)(=O)N(C)CCOCC(=O)NCC2CCC(C(c3ccccc3)N(C)C)CC2)cc1` (stereo not shown) [Example 242], the “μ (binding on the μ opioid receptor, % inhibition)” value is recorded as 77%.

For the compound `CN(C)C(c1cccs1)C1CCC(CCNC(=O)COC2CCCCC2N(C)S(=O)(=O)c2ccc(Cl)c(Cl)c2)CC1` (stereo not shown) [Example 214], the “μ (binding on the μ opioid receptor, % inhibition)” value was 85%.

With `CN(C)C(c1cccc(F)c1)C1CCC(CCNC(=O)COC2CCN(S(=O)(=O)c3ccc(Cl)cc3Cl)C2)CC1` (stereo not shown) [Example 259], the “μ (binding on the μ opioid receptor, % inhibition)” value came to 83%.

With `COc1ccc(S(=O)(=O)N2CCCCC2CCOCC(=O)NCC2CCC(C(c3cccc(F)c3)N(C)C)CC2)cc1` (stereo not shown) [Example 203], the “μ (binding on the μ opioid receptor, % inhibition)” value was 83%.

`COc1ccc(S(=O)(=O)N(C)CCOCC(=O)NC2CCC(C(c3cccs3)N(C)C)CC2)cc1OC` (stereo not shown) [Example 206]: the “μ (binding on the μ opioid receptor, % inhibition)” value is listed as 78%.

For the compound `CN(C)C(c1ccc(F)cc1)C1CCC(NC(=O)COC2CCCCC2N(C)S(=O)(=O)c2ccc(Cl)c(Cl)c2)CC1` (stereo not shown) [Example 256], the “μ (binding on the μ opioid receptor, % inhibition)” value was determined as 73%.

For the compound `CN(C)C(c1cccc(F)c1)C1CCC(NC(=O)COCC2CCCN(S(=O)(=O)c3ccccc3)C2)CC1` (stereo not shown) [Example 266], the “μ (binding on the μ opioid receptor, % inhibition)” value was 74%.

For `CN(C)C(c1cccc(F)c1)C1CCC(CNC(=O)COCCN(C)S(=O)(=O)c2ccc(F)cc2)CC1` (stereo not shown) [Example 229], the “μ (binding on the μ opioid receptor, % inhibition)” value was 79%.

On to `COc1ccc(S(=O)(=O)N2CCCC2COCC(=O)NCCC2CCC(C(c3cccc(F)c3)N(C)C)CC2)cc1` (stereo not shown) [Example 224], for which the “μ (binding on the μ opioid receptor, % inhibition)” value is reported as 85%.

As to `Cc1ccc(S(=O)(=O)N(C)CCOCC(=O)NC2CCC(C(c3cccc(F)c3)N(C)C)CC2)cc1` (stereo not shown) [Example 226], the “μ (binding on the μ opioid receptor, % inhibition)” value was found to be 74%.

As for `CN(C)C(c1cccc(F)c1)C1CCC(NC(=O)COCCN(C)S(=O)(=O)c2ccc(F)cc2)CC1` (stereo not shown) [Example 205], the “μ (binding on the μ opioid receptor, % inhibition)” value is reported as 76%.

For `COc1ccc(S(=O)(=O)N2Cc3ccccc3CC2COCC(=O)NC2CCC(C(c3ccc(F)cc3)N(C)C)CC2)cc1` (stereo not shown) [Example 234], the “μ (binding on the μ opioid receptor, % inhibition)” value was determined as 76%.

Consider `COc1cc(C)c(S(=O)(=O)N2CCC(OCC(=O)NCCC3CCC(C(c4cccc(F)c4)N(C)C)CC3)CC2)c(C)c1C` (stereo not shown) [Example 232], for which the “μ (binding on the μ opioid receptor, % inhibition)” value is 78%.

As to `COc1ccc(S(=O)(=O)N2CCCCC2COCC(=O)NC2CCC(C(c3cccc(F)c3)N(C)C)CC2)cc1` (stereo not shown) [Example 255], the “μ (binding on the μ opioid receptor, % inhibition)” value amounted to 72%.

Consider `CN(C)C(c1cccc(F)c1)C1CCC(NC(=O)COCC2CCCN2S(=O)(=O)c2ccc(Cl)c(Cl)c2)CC1` (stereo not shown) [Example 211], for which the “μ (binding on the μ opioid receptor, % inhibition)” value stood at 83%.

For `COc1cc(C)c(S(=O)(=O)N(C)CCOCC(=O)NC2CCC(C(c3ccccc3)N(C)C)CC2)c(C)c1` (stereo not shown) [Example 239], the “μ (binding on the μ opioid receptor, % inhibition)” value was 38%.

With `CN(C)C(c1cccs1)C1CCC(CNC(=O)COC2CCN(S(=O)(=O)c3ccccc3)CC2)CC1` (stereo not shown) [Example 276], the “μ (binding on the μ opioid receptor, % inhibition)” value is recorded as 78%.

Regarding `CN(C)C(c1cccc(F)c1)C1CCC(CCNC(=O)COCCN(C)S(=O)(=O)c2ccc(F)cc2)CC1` (stereo not shown) [Example 218], the “μ (binding on the μ opioid receptor, % inhibition)” value is 82%.

As to `CN(C)C(c1cccc(F)c1)C1CCC(CNC(=O)COC2CCN(S(=O)(=O)c3ccc(Cl)cc3)C2)CC1` (stereo not shown) [Example 258], the “μ (binding on the μ opioid receptor, % inhibition)” value was 80%.

In the case of `Cc1ccc(S(=O)(=O)N2CCC(OCC(=O)NCCC3CCC(C(c4cccs4)N(C)C)CC3)C2)cc1` (stereo not shown) [Example 272], the “μ (binding on the μ opioid receptor, % inhibition)” value turned out to be 73%.

Consider `CN(C)C(c1cccc(F)c1)C1CCC(NC(=O)COC2CCN(S(=O)(=O)c3ccccc3)C2)CC1` (stereo not shown) [Example 271], for which the “μ (binding on the μ opioid receptor, % inhibition)” value was 72%.

For the compound `Cc1ccc(S(=O)(=O)N2CCC(OCC(=O)NCCC3CCC(C(c4cccc(F)c4)N(C)C)CC3)C2)cc1` (stereo not shown) [Example 216], the “μ (binding on the μ opioid receptor, % inhibition)” value was determined as 72%.

`CCN(CCOCC(=O)NCCC1CCC(C(c2cccc(F)c2)N(C)C)CC1)S(=O)(=O)c1c(C)cc(OC)c(C)c1C` (stereo not shown) [Example 209]: the “μ (binding on the μ opioid receptor, % inhibition)” value is recorded as 85%.

With `CN(C)C(c1cccc(F)c1)C1CCC(NC(=O)COCCN(C)S(=O)(=O)c2ccc(OC(F)(F)F)cc2)CC1` (stereo not shown) [Example 246], the “μ (binding on the μ opioid receptor, % inhibition)” value was 76%.

With `COc1cc(C)c(S(=O)(=O)N2CCC(OCC(=O)NCCC3CCC(C(c4cccc(F)c4)N(C)C)CC3)C2)c(C)c1C` (stereo not shown) [Example 253], the “μ (binding on the μ opioid receptor, % inhibition)” value was found to be 76%.

(Values after patent US8106055B2, “Substituted amide compounds” (Gruenenthal GmbH, priority 2007, dated 2012).)
